Data: patent US20030087963A1, “Methods of preparing and using 2-hydroxy derivatives of sibutramine and its metabolites” (priority 2001, published 2003)
Read-outs that look alike come from different tables or passages of the source.

Legend:
[1] = target: T1, functional uptake of dopamine (DA) (Rattus norvegicus, UniProt P23977); assay: Inhibition of functional uptake of dopamine (DA) into synaptosomes from rat corpora striata; assay type: biochemical
T1 construct: synaptosomes prepared from rat whole brain, hypothalamus, or corpora striata, respectively; from tissue; host or cells: rat corpora striata synaptosomes
Method: (§1) The 2-hydroxy derivatives of the sibutramine metabolites N-desmethyl and N-didesmethylsibutramine (DMS and DDMS, respectively) were tested for their inhibition of functional uptake of serotonin (5-HT), norepinephrine (NE), or dopamine (DA), into synaptosomes prepared from rat whole brain, hypothalamus, or corpora striata, respectively, using methods known in the art. In addition, binding was determined at the nonselective muscarinic receptor and the […] from rat cerebral cortex and rat adipose tissue, respectively.
(§2) IC50 values (concentration inhibiting control activity by 50 percent) were then determined by nonlinear regression analysis of the inhibition curves and tabulated below.

[2] = target: T2, functional uptake of serotonin (5-HT) (Rattus norvegicus, UniProt P31652); assay: Inhibition of functional uptake of serotonin (5-HT) into synaptosomes from rat whole brain; assay type: biochemical
T2 construct: synaptosomes prepared from rat whole brain, hypothalamus, or corpora striata, respectively; from tissue; host or cells: rat whole brain synaptosomes
Method: as §1, §2

[3] = target: T3, functional uptake of norepinephrine (NE) (Rattus norvegicus, UniProt Q63380); assay: Inhibition of functional uptake of norepinephrine (NE) into synaptosomes from rat hypothalamus; assay type: biochemical
T3 construct: synaptosomes prepared from rat whole brain, hypothalamus, or corpora striata, respectively; from tissue; host or cells: rat hypothalamus synaptosomes
Method: as §1, §2

[4] = target: nonselective muscarinic receptor; assay: Binding at the nonselective muscarinic receptor from rat cerebral cortex
Method: as §1, §2

[5] = synaptosomes from rat hypothalamus, read-out: IC50, NE functional uptake

T3 sequence (Q63380 1-617): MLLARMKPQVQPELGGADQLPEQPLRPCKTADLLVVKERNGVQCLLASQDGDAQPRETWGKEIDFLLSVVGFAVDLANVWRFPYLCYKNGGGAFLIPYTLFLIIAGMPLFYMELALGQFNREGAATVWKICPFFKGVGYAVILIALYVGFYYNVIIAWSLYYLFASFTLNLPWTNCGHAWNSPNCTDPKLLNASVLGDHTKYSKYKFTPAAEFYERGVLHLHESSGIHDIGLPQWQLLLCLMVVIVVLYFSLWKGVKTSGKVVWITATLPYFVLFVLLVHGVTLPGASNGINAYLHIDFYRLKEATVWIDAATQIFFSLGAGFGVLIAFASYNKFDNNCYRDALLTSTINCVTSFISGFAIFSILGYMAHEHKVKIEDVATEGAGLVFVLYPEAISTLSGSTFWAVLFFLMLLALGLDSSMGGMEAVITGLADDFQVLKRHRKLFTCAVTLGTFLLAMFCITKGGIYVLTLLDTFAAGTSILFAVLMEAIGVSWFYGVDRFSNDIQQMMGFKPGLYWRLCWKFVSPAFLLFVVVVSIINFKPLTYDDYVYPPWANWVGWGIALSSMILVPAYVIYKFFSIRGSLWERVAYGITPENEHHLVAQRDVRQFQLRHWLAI
T1 sequence (P23977 whole entry): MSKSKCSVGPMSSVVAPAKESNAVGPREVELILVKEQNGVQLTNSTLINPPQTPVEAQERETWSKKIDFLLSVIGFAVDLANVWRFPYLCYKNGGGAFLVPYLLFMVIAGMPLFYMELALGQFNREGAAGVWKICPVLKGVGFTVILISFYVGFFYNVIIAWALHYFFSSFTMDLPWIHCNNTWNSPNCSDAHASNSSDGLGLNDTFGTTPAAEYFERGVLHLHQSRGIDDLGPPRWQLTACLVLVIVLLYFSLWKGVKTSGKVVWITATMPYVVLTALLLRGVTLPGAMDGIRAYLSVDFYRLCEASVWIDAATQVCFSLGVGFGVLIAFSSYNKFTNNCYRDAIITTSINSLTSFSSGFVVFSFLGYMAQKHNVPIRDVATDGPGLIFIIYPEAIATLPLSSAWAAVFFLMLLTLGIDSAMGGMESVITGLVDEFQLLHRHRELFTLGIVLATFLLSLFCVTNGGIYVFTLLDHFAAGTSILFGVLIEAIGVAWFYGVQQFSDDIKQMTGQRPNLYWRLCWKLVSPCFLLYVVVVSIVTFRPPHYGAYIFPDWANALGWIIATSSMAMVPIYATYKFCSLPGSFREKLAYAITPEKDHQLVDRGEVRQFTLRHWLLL
T2 sequence (P31652 whole entry): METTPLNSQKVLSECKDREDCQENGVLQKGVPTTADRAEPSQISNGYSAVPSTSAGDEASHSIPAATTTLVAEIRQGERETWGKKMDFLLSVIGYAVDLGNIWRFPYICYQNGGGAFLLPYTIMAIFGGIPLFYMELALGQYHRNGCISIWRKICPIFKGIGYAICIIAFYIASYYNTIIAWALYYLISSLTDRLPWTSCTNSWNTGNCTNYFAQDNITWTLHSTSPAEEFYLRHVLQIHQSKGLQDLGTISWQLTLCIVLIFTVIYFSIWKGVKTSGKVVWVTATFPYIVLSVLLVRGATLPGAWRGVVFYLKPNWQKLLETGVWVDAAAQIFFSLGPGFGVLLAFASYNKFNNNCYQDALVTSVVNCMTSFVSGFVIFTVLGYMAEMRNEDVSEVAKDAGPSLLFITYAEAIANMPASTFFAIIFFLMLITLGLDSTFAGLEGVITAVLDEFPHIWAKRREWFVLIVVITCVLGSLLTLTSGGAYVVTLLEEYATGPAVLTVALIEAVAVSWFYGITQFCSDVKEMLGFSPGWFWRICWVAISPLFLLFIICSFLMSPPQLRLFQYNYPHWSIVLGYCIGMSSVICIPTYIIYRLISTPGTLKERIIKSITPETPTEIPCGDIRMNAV

## CC(C)(O)C[C@@H](N)C1(c2ccc(Cl)cc2)CCC1 [2-(R)-OH-DDMS, (R)-(−)-4-amino-[1-(4-chlorophenyl)cyclobutyl]-2-methyl-butan-2-ol]
[1]
  IC50: 18 nM
[2]
  IC50: 7.2 nM
[3]; [5]
  IC50: 6.2 nM

## CN[C@H](CC(C)(C)O)C1(c2ccc(Cl)cc2)CCC1 [2-(R)-OH-DMS, (R)-(+)-4-[1-(4-Chloro-phenyl)-cyclobutyl]-2-methyl-4-methylamino-butan-2-ol]
[1]
  IC50: 48 nM
[2]
  IC50: 22 nM
[3]
  IC50: 23 nM
[4]
  IC50: 8.97 µM

## CC(C)(O)C[C@H](N)C1(c2ccc(Cl)cc2)CCC1 [2-(S)-OH-DDMS, (S)-(+)-4-amino-[1-(4-chlorophenyl)cyclobutyl]-2-methyl-butan-2-ol]
[1]
  IC50: 59 nM
[2]
  IC50: 670 nM
[3]; [5]
  IC50: 71 nM

## CN[C@@H](CC(C)(C)O)C1(c2ccc(Cl)cc2)CCC1 [2-(S)-OH-DMS]
[1]
  IC50: 370 nM
[2]
  IC50: 5400 nM
[3]
  IC50: 310 nM
[4]
  IC50: 4.48 µM

## CN1[C@@H]2CC[C@H]1C[C@@H](OC(=O)C(CO)c1ccccc1)C2 (stereo partly drawn) [Atropine, reference compound]
[4]
  IC50: 0.00038 µM
